Source: the supplement of paper PMC10307832

Legend:
Assay in all cases: relative viability (nuclei count vs DMSO), 5 days (fraction); higher = more cells survive
Daporinad + Lapatinib = compound: O=C(/C=C/c1cccnc1)NCCCCC1CCN(C(=O)c2ccccc2)CC1 [Daporinad] + CS(=O)(=O)CCNCc1ccc(-c2ccc3ncnc(Nc4ccc(OCc5cccc(F)c5)c(Cl)c4)c3c2)o1 [Lapatinib] (partner 2 µM)
Procedure, shortened: (§1)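 Relative viability equals treated-well nuclei counts divided by vehicle-well nuclei counts. Counts came from 4× images of lung cancer cell lines grown in 1536-well plates for 5 days after pin-tool dosing on the day after seeding. Dosing used one drug alone or a fixed anchor-drug dose plus five library-drug doses (not always all listed) in √10 steps, and values are medians of duplicate plates.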

R406 + Vorinostat = compound: COc1cc(Nc2ncc(F)c(Nc3ccc4c(n3)NC(=O)C(C)(C)O4)n2)cc(OC)c1OC [R406] + O=C(CCCCCCC(=O)Nc1ccccc1)NO [Vorinostat] (partner 1 µM)
Procedure, shortened: as §1

Daporinad + Vorinostat = compound: O=C(/C=C/c1cccnc1)NCCCCC1CCN(C(=O)c2ccccc2)CC1 [Daporinad] + O=C(CCCCCCC(=O)Nc1ccccc1)NO [Vorinostat] (partner 1 µM)
Procedure, shortened: as §1

R406 + Phenformin = compound: COc1cc(Nc2ncc(F)c(Nc3ccc4c(n3)NC(=O)C(C)(C)O4)n2)cc(OC)c1OC [R406] + N=C(N)NC(=N)NCCc1ccccc1 [Phenformin] (partner 250 µM)
Procedure, shortened: as §1

Cell Line	relative viability (Daporinad + Lapatinib; first compound 0.0005 µM)	relative viability (Daporinad + Lapatinib; first compound 0.001581 µM)	relative viability (Daporinad + Lapatinib; first compound 0.005 µM)	relative viability (Daporinad + Lapatinib; first compound 0.01581 µM)	relative viability (R406 + Vorinostat; first compound 0.08 µM)	relative viability (R406 + Vorinostat; first compound 0.253 µM)	relative viability (R406 + Vorinostat; first compound 0.8 µM)	relative viability (R406 + Vorinostat; first compound 2.53 µM)	relative viability (R406 + Vorinostat; first compound 8 µM)	relative viability (Daporinad + Vorinostat; first compound 0.0005 µM)	relative viability (Daporinad + Vorinostat; first compound 0.001581 µM)	relative viability (Daporinad + Vorinostat; first compound 0.005 µM)	relative viability (Daporinad + Vorinostat; first compound 0.01581 µM)	relative viability (R406 + Phenformin; first compound 0.08 µM)	relative viability (R406 + Phenformin; first compound 0.253 µM)	relative viability (R406 + Phenformin; first compound 0.8 µM)	relative viability (R406 + Phenformin; first compound 2.53 µM)	relative viability (R406 + Phenformin; first compound 8 µM)
IA-LM	1.02	0.771	0.664	0.876	0.984	0.756	1.04	0.99	1.05	0.855	1.25	0.986	1.09					
NCI-H322M	0.648	0.671	0.584	0.597	0.816	0.873	0.864	0.633	0.468	0.891	0.877	0.831	0.669	0.709	0.721	0.853	0.582	0.275
NCI-H3122	1.01	1.12	1.01	1.02	0.884	1.1	1.03	0.923	0.928	0.938	1.14	1.03	0.898	0.396	0.39	0.396	0.365	0.369
NCI-H441					0.669	0.754	0.76	0.905	0.699	0.913	0.677	0.811	0.778	0.829	0.872	1.05	0.44	0.309
COR-L23	0.969	0.993	0.92	0.403	0.483	0.433	0.424	0.279	0.244	0.427	0.345	0.408	0.161	0.416	0.456	0.501	0.379	0.261
NCI-H2087	0.99	0.979	1.18	1.14	0.43	0.741	0.885	0.646	0.954	0.89	0.645	0.576	0.792	0.487	0.569	0.556		0.406
LC-2-ad	0.959	1.03	0.936	0.972	0.677	0.748	0.744	0.336	0.201	0.677	0.769	0.693	0.63	0.592	0.561	0.579	0.384	0.25
NCI-H1915	0.983	1.03	1.03	0.969	0.506	0.631	0.546	0.403	0.369	0.52	0.605	0.634	0.462	0.359	0.388	0.404		0.278
NCI-H1623														0.577	0.624	0.611	0.585	0.554
NCI-H2023	0.699	0.946	0.76	0.843	0.732	0.784	0.618	0.391	0.312	0.848	0.667	0.715	0.631	0.374	0.444	0.464	0.312	0.163
COR-L 105	0.371	0.371	0.385	0.442	0.743	0.893	0.824	0.651	0.514	0.775	0.705	0.861	0.851	0.495	0.569	0.602	0.366	0.224
SK-LU-1	0.889	0.907	1.09	0.969	0.84	0.822	0.764	0.555	0.155	0.851	0.85	0.919	0.788	0.597	0.608	0.628	0.175	0.0854
LXF-289	0.847	0.989	0.91	0.95	0.632	0.772	0.787	0.654	0.616	0.692	0.937	0.794	0.96	0.517	0.543	0.533	0.38	0.4
PC-3 [JPC-3]	0.433	0.459	0.437	0.455	0.811	1.01	0.861	0.546	0.381	0.604	0.818	1.06	0.921	0.466	0.515	0.526	0.413	0.377
NCI-H1792	0.837	0.987	0.838	0.932											0.377	0.246	0.0941	0.13
ChaGo-K-1					0.755	0.839	0.822	0.609	0.637	0.832	0.743	0.677	0.283	0.491	0.508	0.657	0.42	0.403
NCI-H522					0.937	1.04	1.01	0.838	0.812	0.995	1.13	0.946	0.544	0.595	0.595	0.619	0.553	0.583
NCI-H1299	0.956	0.954	0.955	1.05														
SW 900					0.475	0.844	0.577	0.134	0.15	0.461		0.86	0.3	0.53	0.662	0.792	0.189	0.215
A549	0.973	1.05	0.938	0.607										0.142	0.21	0.122	0.155	0.0767
NCI-H1563	1.1	1.07	0.844	0.862										0.662	0.664	0.682	0.511	0.445
LCLC-103H					0.729	0.764	0.834	0.779	0.566	0.747	0.835	0.864	0.999	0.327	0.345	0.419	0.317	0.314
